Common to all, as to type: functional
A short description of test [1]: Antioxidant activity assessed as decrease in Cu2+/GSH-induced oxidation of DNA measured TBARS production at 400 uM after 90 min by spectrophotometric analysis relative to control. Details: scale not given: the % may be the effect or the level left.
A short description of test [2]: Antioxidant activity assessed as decrease in hydroxyl radical-induced oxidation of DNA measured TBARS production at 400 uM after 30 min by spectrophotometric analysis relative to control. Details: scale not given: the % may be the effect or the level left.
A short description of test [3]: Antioxidant activity assessed as decrease in AAPH-induced oxidation of DNA measured TBARS production at 400 uM after 15 min by spectrophotometric analysis.
Test [4] is described as follows: Antioxidant activity assessed as decrease in AAPH-induced oxidation of DNA measured TBARS production at 100 to 400 uM after 15 min by spectrophotometric analysis.

The structures appear in SMILES notation. Calls of active or inactive are those of the source. The calls are words filed in the database; no cut-off is given here.

For `Cc1c2c(nc3ccc(O)cc13)OCC2`, the Activity was 92.9% in test [1] and 88.4% in test [2].
Turning to `Cc1c2c(nc3ccccc13)OCC2`, the values for the Activity in test [1] and in test [2] were 96.6% and 95.1%, respectively. In addition, the outcome in test [3] was inactive.
For the molecule `Cc1c2c(nc3c(O)cccc13)OCC2`, the values for the Activity in test [1] and in test [2] were 92.2% and 90.8%, respectively.
As to `Cc1c2c(nc3cc(O)ccc13)OCC2`, the Activity was determined as 93.5% in test [1] and 95.1% in test [2]. Moreover, the outcome in test [4] was Active.

The record behind these values is ChEMBL document CHEMBL3046482, “Facile synthesis of furoquinoline and effects on radical-induced oxidation of DNA” (Med Chem Res, 2013).
